Test results: PubChem BioAssay (NCI)
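Growth conditions: 96-well plates. Treatment: test compound, 48 hours, 5 concentrations. Analysis: linear interpolation between bracketing concentrations; unreached endpoints set to highest concentration. GI50 marks 50% less growth. TGI is the concentration that stops growth completely.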

Tests used:
Assay in all cases: DTP human tumour cell line panel, 48 h
786-0 renal = system: 786-0 renal
HL-60(TB) leukemia = system: HL-60(TB) leukemia
SK-MEL-2 melanoma = system: SK-MEL-2 melanoma
SR leukemia = system: SR leukemia
DU-145 prostate = system: DU-145 prostate
KM12 colon = system: KM12 colon
SNB-75 CNS = system: SNB-75 CNS
UACC-257 melanoma = system: UACC-257 melanoma
HT29 colon = system: HT29 colon
UACC-62 melanoma = system: UACC-62 melanoma

Structure (SMILES) | GI50 (786-0 renal) | TGI (786-0 renal) | GI50 (HL-60(TB) leukemia) | TGI (HL-60(TB) leukemia) | GI50 (SK-MEL-2 melanoma) | TGI (SK-MEL-2 melanoma) | GI50 (SR leukemia) | TGI (SR leukemia) | GI50 (DU-145 prostate) | TGI (DU-145 prostate) | TGI (KM12 colon) | GI50 (SNB-75 CNS) | TGI (SNB-75 CNS) | GI50 (UACC-257 melanoma) | TGI (UACC-257 melanoma) | GI50 (HT29 colon) | TGI (HT29 colon) | GI50 (UACC-62 melanoma) | TGI (UACC-62 melanoma) | GI50 (KM12 colon)
CC[C@H](C)C(=O)O[C@H]1CCC=C2C=C[C@H](C)[C@H](CC[C@@H]3C[C@@H](O)CC(=O)O3)[C@H]21 | 8.95 µM | > 74.5 µM | 17.1 µM | 76.5 µM | 1.77 µM | 11.7 µM | 3.79 µM | > 59.4 µM | 51.6 µM | > 100 µM | > 100 µM | 1.37 µM | 4.68 µM | 73.3 µM | > 100 µM | 28 µM | > 100 µM | 2.51 µM | > 24.4 µM | –
CCCn1cc(/C=N\N=C2\C(=O)Nc3ccc(C)cc32)c2ccccc21 | 5.94 µM | 71.2 µM | 1.31 µM | 4.8 µM | 2.42 µM | 8.03 µM | 0.521 µM | 8.72 µM | 3.88 µM | 40.6 µM | 19.7 µM | 2.31 µM | 46 µM | 12.3 µM | 66.6 µM | 3.4 µM | > 100 µM | 2.24 µM | 12.1 µM | 3.22 µM
C#Cc1cccc(Nc2ncnc3ccc(-c4cnc(N)nc4)cc23)c1 | 2.67 µM | 14.8 µM | 2.59 µM | 11 µM | 2.11 µM | 5.72 µM | 2.58 µM | > 100 µM | 0.744 µM | 14.6 µM | 20.8 µM | 0.643 µM | 3.96 µM | 6.57 µM | 46 µM | 2.36 µM | 14.6 µM | 1.83 µM | 11.4 µM | 4.57 µM
COc1ccc(C(=O)/C=C/c2c(C(F)(F)F)nc3ccccn23)cc1OC | 2.26 µM | > 100 µM | 0.758 µM | 2.64 µM | 1.72 µM | 5.09 µM | 0.272 µM | 0.964 µM | 1.3 µM | – | 7.42 µM | 2.01 µM | 6.77 µM | 2.43 µM | > 100 µM | 0.786 µM | – | – | > 100 µM | 0.646 µM
O=[N+]([O-])c1cc(C(F)(F)F)cc2n[se]nc12 | – | 4.85 µM | – | 4.02 µM | – | 22.7 µM | – | 4.39 µM | – | 6.66 µM | 20.3 µM | – | 19.8 µM | – | 4.56 µM | – | 21.9 µM | – | 15 µM | –
N#Cc1ccc(O)c(C2=NCC(c3ccc(-c4ccccc4)cc3)O2)c1 (stereo unspecified) | 0.626 µM | 11.9 µM | 0.416 µM | 3.73 µM | 0.746 µM | 15.8 µM | 0.529 µM | > 100 µM | 0.732 µM | 16 µM | 28.7 µM | 0.625 µM | 14.4 µM | 1.15 µM | 7.96 µM | 0.866 µM | 24.1 µM | 0.407 µM | 1.61 µM | 0.462 µM
COc1cc2c(cc1OC)-c1c(c3ccc([N+](=O)[O-])cc3c(=O)n1CCCN=[N+]=[N-])C2=O | 50.4 µM | > 100 µM | 73 µM | > 100 µM | > 100 µM | > 100 µM | 0.509 µM | 3.68 µM | 86.1 µM | > 100 µM | > 100 µM | 86.2 µM | > 100 µM | > 100 µM | > 100 µM | > 100 µM | > 100 µM | 51.9 µM | > 100 µM | > 100 µM
CC(C)c1ccc(C(c2c(O)c3ccccc3oc2=O)c2c(O)c3ccccc3oc2=O)cc1 | – | 40.9 µM | – | 26.3 µM | – | 30.8 µM | – | 31.1 µM | – | > 81.8 µM | 40.4 µM | – | 75.8 µM | – | 53 µM | – | 40.2 µM | – | 31.2 µM | –
CN(C)C[C@@H]1CCn2cc(c3ccccc32)C2=C(C(=O)NC2=O)c2cn(c3ccccc23)CCO1 | 1.78 µM | 3.93 µM | 1.6 µM | 3.75 µM | 2 µM | > 10 µM | 1.68 µM | 5.55 µM | 2.75 µM | > 10 µM | > 10 µM | 1.4 µM | 5.96 µM | 2.08 µM | > 10 µM | 3.32 µM | > 10 µM | 0.792 µM | > 10 µM | 1.82 µM
CN1CCN(C(=O)[C@@]2(C)CC[C@]3(C)CC[C@]4(C)C(=CC[C@@H]5[C@@]6(C)CC[C@H](OC(=O)c7cccnc7)C(C)(C)[C@@H]6CC[C@]54C)[C@@H]3C2)CC1 | 1.75 µM | 3.22 µM | 1.44 µM | 3.36 µM | 13.2 µM | 28.6 µM | 0.937 µM | 4.08 µM | 1.81 µM | 3.51 µM | 3.64 µM | 1.32 µM | 2.63 µM | 1.83 µM | 3.53 µM | 1.06 µM | 2.69 µM | 1.84 µM | 3.46 µM | 1.9 µM
CCN(CC)CCNc1ccc(N=Nc2cnc3ccccc3c2)c2ccccc12 | 1.93 µM | 3.35 µM | 1.34 µM | 2.92 µM | 2.34 µM | 4.3 µM | 0.59 µM | 2.08 µM | 1.83 µM | 3.22 µM | 2.89 µM | 1.36 µM | 2.89 µM | 1.96 µM | 3.49 µM | 1.38 µM | 2.67 µM | 1.7 µM | 3.21 µM | 1.56 µM
CCN(CC)CCOc1ccc(NC(=O)C(C(C)C)N2C(=O)/C(=C/c3ccc(Br)cc3)SC2=S)cc1 (stereo unspecified) | 1.76 µM | 3.22 µM | 4.96 µM | 20.8 µM | 14.9 µM | 30.9 µM | 2.16 µM | 6.43 µM | 4.44 µM | 14.7 µM | 11.3 µM | 7.82 µM | 21.1 µM | 2.2 µM | 5.14 µM | 2.88 µM | 8.51 µM | 1.81 µM | 3.53 µM | 3.19 µM
Cc1cnc(-c2ccc(-c3ccc(NC(=O)Nc4cccc(C(F)(F)F)c4)cc3F)c3c2C(=O)NC3)[nH]1 | 16.8 µM | > 51.8 µM | 43.4 µM | > 100 µM | 14.9 µM | 36.8 µM | 0.0862 µM | > 59.9 µM | 11.5 µM | 35.6 µM | 16.2 µM | 1.29 µM | 25.5 µM | 13.5 µM | > 66 µM | 0.853 µM | > 44.7 µM | 9.61 µM | 35.5 µM | < 0.01 µM
